Source: patent US7166590B2, “Amino acid derivatives” (Ono Pharmaceutical Co., Ltd., priority 1997, dated 2007)
Where a name gives a salt, the structure may show the parent alone.

Molecular target: T1, N-type calcium channel (Homo sapiens, UniProt Q00975)
T1 construct: endogenous in cells
Assay: Determination of inhibitory activity on N-type calcium channel (Fura-2 calcium influx, KCl depolarization, with nifedipine)
Format: cell-based
Conditions: compound at final concentration of 3 μM, depolarized by 80 mM potassium chloride, Fura-2 fluorescence, read-out: Inhibitory activity on Ca influx (%)
Description: Determination of Inhibitory Activity on N-Type Calcium Channel:
Cell line was differentiated according to the method described in FEBS Letters, 235, 178-182, 1988. The cell was loaded with fluorescent reagent, Fura-2•AM (at the final concentration of 10 μM), at 37° C. for 30 minutes and suspended in Krebs-buffer containing HEPES (25 mM) to obtain the cell suspension. The obtained cell suspension was incubated in the presence or absence of the compounds of the present invention with nifedipine for 5 minutes. The cell was depolarized by adding potassium chloride solution (at the final concentration of 80 mM) thereto and then a fluorescence intensity at the emission wavelength of 500 nm excited by the UV of 340 nm and 380 nm alternately was measured using the intracellular calcium analyzer (Nippon Bunko Co., CAF-110). The inhibitory activity of the compound of the present invention (at the final concentration of 3 μM) on calcium influx into the cell was calculated from the difference in changing the fluorescence intensity at peak (ΔR) according to the following equation. [formula]

T1 sequence (Q00975 whole entry): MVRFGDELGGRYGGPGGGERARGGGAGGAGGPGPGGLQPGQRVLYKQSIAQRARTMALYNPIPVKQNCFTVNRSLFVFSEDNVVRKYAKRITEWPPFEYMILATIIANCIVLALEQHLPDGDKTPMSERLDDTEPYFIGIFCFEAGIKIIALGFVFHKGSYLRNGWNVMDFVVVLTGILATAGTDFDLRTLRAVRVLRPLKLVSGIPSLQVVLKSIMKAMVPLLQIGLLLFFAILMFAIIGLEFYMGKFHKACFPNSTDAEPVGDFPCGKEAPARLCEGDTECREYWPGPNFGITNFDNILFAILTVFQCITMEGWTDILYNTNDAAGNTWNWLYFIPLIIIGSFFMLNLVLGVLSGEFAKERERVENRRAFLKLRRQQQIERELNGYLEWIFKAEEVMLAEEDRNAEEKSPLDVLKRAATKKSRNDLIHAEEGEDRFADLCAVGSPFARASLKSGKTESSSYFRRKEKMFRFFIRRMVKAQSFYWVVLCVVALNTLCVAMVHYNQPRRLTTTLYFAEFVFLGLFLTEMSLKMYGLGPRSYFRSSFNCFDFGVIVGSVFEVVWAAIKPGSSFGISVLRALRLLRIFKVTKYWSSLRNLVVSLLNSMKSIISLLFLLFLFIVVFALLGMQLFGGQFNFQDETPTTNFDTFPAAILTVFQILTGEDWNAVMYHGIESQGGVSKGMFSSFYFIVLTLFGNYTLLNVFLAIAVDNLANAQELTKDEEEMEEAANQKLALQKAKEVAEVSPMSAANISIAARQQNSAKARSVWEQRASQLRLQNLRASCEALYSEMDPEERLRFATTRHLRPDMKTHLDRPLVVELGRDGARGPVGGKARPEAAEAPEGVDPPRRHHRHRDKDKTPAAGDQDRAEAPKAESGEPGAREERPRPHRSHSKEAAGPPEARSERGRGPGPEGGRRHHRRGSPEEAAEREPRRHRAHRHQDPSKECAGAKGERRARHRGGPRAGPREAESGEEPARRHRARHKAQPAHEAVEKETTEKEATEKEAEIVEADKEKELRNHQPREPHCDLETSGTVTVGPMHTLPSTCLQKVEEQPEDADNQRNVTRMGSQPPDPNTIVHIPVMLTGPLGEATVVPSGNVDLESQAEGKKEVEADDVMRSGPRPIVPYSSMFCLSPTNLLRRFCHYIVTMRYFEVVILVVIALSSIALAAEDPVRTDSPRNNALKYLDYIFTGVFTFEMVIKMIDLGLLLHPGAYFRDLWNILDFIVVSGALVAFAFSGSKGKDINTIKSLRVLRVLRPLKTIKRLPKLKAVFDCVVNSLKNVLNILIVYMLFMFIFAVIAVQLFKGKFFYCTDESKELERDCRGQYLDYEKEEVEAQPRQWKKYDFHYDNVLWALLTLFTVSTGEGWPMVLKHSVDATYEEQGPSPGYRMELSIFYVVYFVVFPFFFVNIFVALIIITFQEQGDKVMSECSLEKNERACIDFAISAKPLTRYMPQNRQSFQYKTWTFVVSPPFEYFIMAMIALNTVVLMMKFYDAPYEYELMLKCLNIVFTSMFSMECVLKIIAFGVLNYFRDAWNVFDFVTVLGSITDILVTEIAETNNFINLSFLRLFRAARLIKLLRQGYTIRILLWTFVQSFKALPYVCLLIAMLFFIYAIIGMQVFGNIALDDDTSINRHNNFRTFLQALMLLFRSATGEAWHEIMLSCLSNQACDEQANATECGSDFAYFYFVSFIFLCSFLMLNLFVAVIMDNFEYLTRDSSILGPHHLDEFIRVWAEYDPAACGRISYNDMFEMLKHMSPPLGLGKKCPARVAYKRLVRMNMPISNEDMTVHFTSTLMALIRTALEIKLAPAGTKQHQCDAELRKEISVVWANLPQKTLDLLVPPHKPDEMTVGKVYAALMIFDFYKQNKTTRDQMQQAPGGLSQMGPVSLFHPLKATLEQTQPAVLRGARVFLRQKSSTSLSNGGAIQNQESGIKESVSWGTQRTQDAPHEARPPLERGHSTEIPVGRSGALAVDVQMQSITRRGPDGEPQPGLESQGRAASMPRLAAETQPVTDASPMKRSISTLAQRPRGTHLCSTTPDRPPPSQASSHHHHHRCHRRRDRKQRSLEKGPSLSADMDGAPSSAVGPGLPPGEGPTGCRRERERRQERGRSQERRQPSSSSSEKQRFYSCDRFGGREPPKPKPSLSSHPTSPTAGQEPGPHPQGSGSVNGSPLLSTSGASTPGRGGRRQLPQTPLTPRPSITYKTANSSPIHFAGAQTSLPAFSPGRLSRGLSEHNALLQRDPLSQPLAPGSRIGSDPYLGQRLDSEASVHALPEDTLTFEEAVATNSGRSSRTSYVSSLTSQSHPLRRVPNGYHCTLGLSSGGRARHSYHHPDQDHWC

Row | SMILES | inhibition at 3 µM [%]
1 | CC(C)(C)OC(=O)N1CSC[C@H]1C(=O)N[C@@H](CSCC1CCCCC1)C(=O)NCc1ccc(Oc2ccccc2)cc1 [Example 6(68), (2R)-N-(4-penoxybenzyl)-3-cyclohexylmethylthio-2-((4R)-3-t-butoxycarbonyl-thiazolidin-4-ylcarbonylamino)propanamide] | 73
2 | O=C(N[C@@H](CSCC1CCCCC1)C(=O)NCc1ccc(Oc2ccccc2)cc1)[C@@H]1CSCN1 [Example 9(13), (2R)-N-(4-phenoxybenzyl)-3-cyclohexylmethylthio-2-((4R)-thiazolidin-4-ylcarbonylamino)propanamide.hydrochloride] | 88
3 | CC(C)(C)OC(=O)N[C@@H](CCC(=O)OCc1ccc([N+](=O)[O-])cc1)C(=O)OC1CCCC1 [Example 2(29), (2S)-4-(4-nitrobenzyloxycarbonyl)-2-t-butoxycarbonylaminobutanoic acid.cyclopentyl ester] | 75
4 | CC(C)(C)OC(=O)N[C@@H](COCC1CCCCC1)C(=O)NCc1ccc([N+](=O)[O-])cc1 [Example 2(86), (2S)-N-(4-nitrobenzyl)-3-cyclohexylmethoxy-2-t-butoxycarbonylamino-propanamide] | 83
5 | COc1ccc(CNC(=O)[C@H](CSCC2CCCCC2)NC(=O)OC(C)(C)C)cc1 [Example 2(80), (2R)-N-(4-methoxybenzyl)-3-cyclohexylmethylthio-2-t-butoxycarbonylamino-propanamide] | 87
6 | COc1ccc(CNC(=O)[C@H](CSCC2CCCCC2)NC(=O)[C@@H]2CSCN2C(=O)OC(C)(C)C)cc1 [Example 6(44), (2R)-N-(4-methoxybenzyl)-3-cyclohexylmethylthio-2-((4R)-3-t-butoxycarbonyl-thiazolidin-4-ylcarbonylamino)propanamide] | 86
7 | COc1ccc(CNC(=O)[C@H](COCC2CCCCC2)NC(=O)C2CCCCC2)cc1 [Example 6(27), (2S)-N-(4-methoxybenzyl)-3-cyclohexylmethoxy-2-cyclohexylcarbonylamino-propanamide] | 72
8 | COc1ccc(CNC(=O)[C@H](COCC2CCCCC2)NS(=O)(=O)c2ccccc2)cc1 [Example 6(22), (2S)-N-(4-methoxybenzyl)-3-cyclohexylmethoxy-2-phenylsulfonylamino-propanamide] | 79
9 | COc1ccc(CNC(=O)[C@H](COCC2CCCCC2)NC(=O)OC(C)(C)C)cc1 [compound 2] | 75
